Data reported in PMC5980303 (CPT: Pharmacometrics & Systems Pharmacology, 2018).
Values joined by “and” are separate entries in the source; they are usually repeats but may differ in a detail not shown here. Equal values may be shown once. Marks after values point to notes of the source that are not given here.

How the values were obtained:
[1] = cited from earlier work
[2] = Integrated population pharmacokinetic model
[3] = doses of 15 mg or 20 mg in the absence of food; cited from earlier work
[4] = cited from earlier work; remark: listed apart in the source
[5] = final population PK model, comedication factor on CL/F

SMILES: O=C(NC[C@H]1CN(c2ccc(N3CCOCC3=O)cc2)C(=O)O1)c1ccc(Cl)s1 [rivaroxaban]
- fraction of the dose eliminated renally as unchanged drug [1]: Approximately one‐third
- θCL/F, VTE >72 h (study-specific factor on CL/F) ([2]; VTE prevention, >72 hours, relative to VTE treatment (factor = 1)): 1.29 Proportion
- θCL/F, VTE ≤72 h (study-specific factor on CL/F) ([2]; VTE prevention, ≤72 hours, relative to VTE treatment (factor = 1)): 1.04 Proportion
- θCL/F, ACS (study-specific factor on CL/F) ([2]; acute coronary syndrome population, relative to VTE treatment (factor = 1)): 1.14 Proportion
- θCL/F, AF (study-specific factor on CL/F) ([2]; atrial fibrillation population, relative to VTE treatment (factor = 1)): 0.85 Proportion and 0.849 Proportion
- D50 (dose parameter of relative bioavailability function) ([2]; final population PK model): 14.4 mg
- ω2 CL/F (interindividual variability) ([2]; final population PK model): 0.167 (10.3) ^d Variance
- ω2 CL/F, V/F ([2]; final population PK model): 0.0674 Covariance
- ω2 ka (interindividual variability) ([2]; final population PK model): 0.628 (32.8) ^d Variance
- ω^2 V/F (interindividual variability) ([2]; final population PK model): 0.0391 (25.7) ^d Variance
- ka (first-order absorption rate constant) ([2]; final population PK model (run 12), 4,918 patients, oral rivaroxaban): 0.821 h⁻¹
- θCL/F, CYP3A4 inducer [2, 5]: 1.30 Proportion
- θCL/F, Medium CYP3A4 inhibitor [2, 5]: 0.863 Proportion
- θCL/F, Strong CYP3A4 inhibitor [2, 5]: 0.978 Proportion
- θCL/F, Weak CYP3A4 inhibitor [2, 5]: 0.939 Proportion
- θCL/F, PGP ([2]; final population PK model, comedication with P-gp inhibitor, factor on CL/F): 0.966 Proportion
- θCL/F, CrCL ([2]; final population PK model, effect of Tietz-truncated CrCL on CL/F): 0.406 Power
- θV/F, Age ([2]; final population PK model, effect of age on V/F): −0.189 Power
- θV/F, Sex ([2]; final population PK model, effect of gender (female) on V/F): 0.889 Proportion
- θCL/F, weight ([2]; final population PK model, effect of weight on CL/F): −0.278 Power
- θV/F, weight ([2]; final population PK model, effect of weight on V/F): 0.216 Power
- Fmax (relative bioavailability as a function of dose) ([2]; final population PK model, fixed, relative bioavailability fixed at 1.0 for a 10 mg dose): 1.25 Proportion
- σ2 prop (residual variability) ([2]; final population PK model, proportional residual error): 0.203 (10.3) ^d Variance
- Fmin (relative bioavailability as a function of dose) ([2]; final population PK model, relative to 10 mg dose (F = 1)): 0.590 Proportion
- AUC increase in the presence of strong CYP3A4 inhibitors ([2]; integrated population PK model): 1.02 fold
- bioavailability and absorption rate vs dose [3]: less than dose proportional
- Biopharmaceutics Classification System class [4]: class 2
- permeability (BCS classification) [4]: high permeability
- solubility (BCS classification) [4]: low solubility
